What all share (assay type): functional
Assay [1] concerns Bacillus cereus. The assay can be described thus: Antimicrobial activity against Bacillus cereus ATCC 10876 after 18 hrs by broth microdilution method. As to conditions: ATCC 10876, 18 h.
Assay [2] relates to Staphylococcus epidermidis. Briefly: Antimicrobial activity against Staphylococcus epidermidis ATCC 12228 after 18 hrs by broth microdilution method. As to conditions: ATCC 12228, 18 h. (Broth dilution looks for growth in wells or tubes with falling amounts of substance.)
The subject of assay [3] is Micrococcus luteus. The assay can be described thus: Antimicrobial activity against Micrococcus luteus ATCC 10240 after 18 hrs by broth microdilution method. Particulars: ATCC 10240, 18 h.
Assay [4] concerns Bacillus subtilis. Briefly: Antimicrobial activity against Bacillus subtilis ATCC […] after 18 hrs by broth microdilution method.
Assay [5] has as its system Staphylococcus aureus. The assay can be described thus: Antimicrobial activity against Staphylococcus aureus ATCC 6538 after 18 hrs by broth microdilution method. As to conditions: ATCC 6538, 18 h.
For assay [6], the system named is Staphylococcus aureus. Briefly: Antimicrobial activity against Staphylococcus aureus ATCC 25923 after 18 hrs by broth microdilution method. Particulars: ATCC 25923, 18 h.
Assay [7] deals with Escherichia coli. The assay can be described thus: Antimicrobial activity against Escherichia coli ATCC 25922 after 18 hrs by broth microdilution method. As to conditions: ATCC 25922, 18 h.
The subject of assay [8] is Bacillus subtilis. Briefly: Antimicrobial activity against Bacillus subtilis ATCC […] assessed as >99.9 % reduction in CFU after 18 hrs by broth microdilution method.
For assay [9], the system named is Proteus mirabilis. The assay can be described thus: Antimicrobial activity against Proteus mirabilis ATCC 12453 after 18 hrs by broth microdilution method. Particulars: ATCC 12453, 18 h, read-out: MIC.
Assay [10] concerns Klebsiella pneumoniae. Briefly: Antimicrobial activity against Klebsiella pneumoniae ATCC 13883 assessed as >99.9 % reduction in CFU after 18 hrs by broth microdilution method. As to conditions: ATCC 13883, 18 h, read-out: MBC.
In assay [11] the test system is Staphylococcus epidermidis. Briefly: Antimicrobial activity against Staphylococcus epidermidis ATCC 12228 assessed as >99.9 % reduction in CFU after 18 hrs by broth microdilution method. Particulars: ATCC 12228, 18 h.
Assay [12] deals with Staphylococcus aureus. Briefly: Antimicrobial activity against Staphylococcus aureus ATCC 6538 assessed as >99.9 % reduction in CFU after 18 hrs by broth microdilution method. As to conditions: ATCC 6538, 18 h.
Assay [13] relates to Bacillus cereus. The assay can be described thus: Antimicrobial activity against Bacillus cereus ATCC 10876 assessed as >99.9 % reduction in CFU after 18 hrs by broth microdilution method. As to conditions: ATCC 10876, 18 h.
Assay [14] concerns Micrococcus luteus. Briefly: Antimicrobial activity against Micrococcus luteus ATCC 10240 assessed as >99.9 % reduction in CFU after 18 hrs by broth microdilution method. Particulars: ATCC 10240, 18 h.
For assay [15], the system named is Staphylococcus aureus. The assay can be described thus: Antimicrobial activity against Staphylococcus aureus ATCC 25923 assessed as >99.9 % reduction in CFU after 18 hrs by broth microdilution method. Particulars: ATCC 25923, 18 h.
Assay [16] concerns Klebsiella pneumoniae. Briefly: Antimicrobial activity against Klebsiella pneumoniae ATCC 13883 after 18 hrs by broth microdilution method. Particulars: ATCC 13883, 18 h.
The test system of assay [17] is Escherichia coli. The assay can be described thus: Antimicrobial activity against Escherichia coli ATCC 25922 assessed as >99.9 % reduction in CFU after 18 hrs by broth microdilution method. Particulars: ATCC 25922, 18 h.
Assay [18] relates to Proteus mirabilis. Briefly: Antimicrobial activity against Proteus mirabilis ATCC 12453 assessed as >99.9 % reduction in CFU after 18 hrs by broth microdilution method. As to conditions: ATCC 12453, 18 h, read-out: MBC.

Converted amounts (≈) assume the structure as drawn.

The term MIC denotes the least concentration at which growth counts as inhibited. One may read the MBC as the lowest tested concentration that kills the bacteria rather than only halting them.

With `Cc1ccc(-n2c(-c3cccc(Cl)c3)n[nH]c2=S)cc1`, the minimal inhibitory concentration (MIC) in assay [1], in [2], in assay [3], in [4], in [5] and in [6] was above 1000 µg/mL each time.

In the case of `COc1ccc(-n2c(-c3cccc(Cl)c3)n[nH]c2=S)cc1`, the MIC in assay [1], in assay [2], in assay [3], in assay [4], in assay [5] and in assay [6] was above 1000 µg/mL in each case.

On to `S=c1[nH]nc(-c2cccc(Cl)c2)n1-c1ccc(Br)cc1`, for which the MIC in assay [1] was 15.6 µg/mL (≈ 42.6 µM); in assay [2], 31.2 µg/mL (≈ 85.2 µM); in [3], 31.2 µg/mL (≈ 85.2 µM); in assay [4], 15.6 µg/mL (≈ 42.6 µM); in assay [5] it was 31.2 µg/mL (≈ 85.2 µM); in [6] it was 31.2 µg/mL (≈ 85.2 µM).

With `S=c1[nH]nc(-c2cccc(Cl)c2)n1-c1ccccc1Br`, the MIC was 1000 µg/mL (≈ 2730 µM) in assay [1]; 125 µg/mL (≈ 341 µM) in [2]; above 1000 µg/mL in assay [3]; 1000 µg/mL (≈ 2730 µM) in [4]; above 1000 µg/mL in assay [5]; above 1000 µg/mL in assay [6].

In the case of `S=c1[nH]nc(-c2cccc(Cl)c2)n1-c1ccc(I)cc1`, the MIC in [1] is 250 µg/mL (≈ 604 µM); in assay [2] it was 250 µg/mL (≈ 604 µM); in assay [3], above 1000 µg/mL; in [4], 31.2 µg/mL (≈ 75.5 µM); in assay [5], 500 µg/mL (≈ 1210 µM); in [6], 250 µg/mL (≈ 604 µM).

As for `S=c1[nH]nc(-c2cccc(Cl)c2)n1-c1ccccc1I`, the MIC in assay [1], in assay [2], in assay [3], in assay [4], in assay [5] and in [6] was above 1000 µg/mL each time.

As for `S=c1[nH]nc(-c2cccc(Cl)c2)n1-c1ccc(Cl)cc1`, the MIC in [1], in assay [2], in assay [3], in [4], in [5] and in assay [6] was 125 µg/mL (≈ 388 µM) in each case.

As to `Fc1ccc(-n2c(-c3cccc(Cl)c3)n[nH]c2=S)cc1`, the MIC in assay [1], in assay [2], in assay [3], in [4], in assay [5] and in assay [6] was above 1000 µg/mL throughout.

In the case of `Fc1ccc(F)c(-n2c(-c3cccc(Cl)c3)n[nH]c2=S)c1`, the MIC in assay [1] is 1000 µg/mL (≈ 3090 µM); in [2], 250 µg/mL (≈ 772 µM); in [3], 1000 µg/mL (≈ 3090 µM); in [4] it was 1000 µg/mL (≈ 3090 µM); in assay [5] it was above 1000 µg/mL; in assay [6], above 1000 µg/mL.

With `Fc1cccc(F)c1-n1c(-c2cccc(Cl)c2)n[nH]c1=S`, the MIC in assay [1] was 250 µg/mL (≈ 772 µM); in [2] it was 250 µg/mL (≈ 772 µM); in assay [3] it was 125 µg/mL (≈ 386 µM); in assay [4], 500 µg/mL (≈ 1540 µM); in assay [5], 250 µg/mL (≈ 772 µM); in assay [6], 250 µg/mL (≈ 772 µM).

Regarding `Cc1ccc(-n2c(-c3cccc(Cl)c3)nn(CN3CCCC3)c2=S)cc1`, the MIC in assay [1] was 125 µg/mL (≈ 325 µM); in assay [7] it was above 1000 µg/mL; in assay [2], 125 µg/mL (≈ 325 µM); in assay [9] it was above 1000 µg/mL; in [3], 62.5 µg/mL (≈ 162 µM); in [4], 31.2 µg/mL (≈ 81.2 µM). Also, the figures for the MIC in assay [5], in assay [6] and in [16] were 62.5 µg/mL (≈ 162 µM), 31.2 µg/mL (≈ 81.2 µM) and above 1000 µg/mL, respectively. Also, the minimum bactericidal concentration (MBC) was 1000 µg/mL (≈ 2600 µM) in assay [8]; above 1000 µg/mL in assay [10]; above 1000 µg/mL in assay [11]; above 1000 µg/mL in assay [12]; above 1000 µg/mL in assay [13]; above 1000 µg/mL in [14]. Also, the MBC in assay [15], in assay [17] and in [18] was above 1000 µg/mL each time.

Take `S=c1n(CN2CCCC2)nc(-c2cccc(Cl)c2)n1-c1ccc(Br)cc1`: the MIC in assay [1] was 62.5 µg/mL (≈ 139 µM); in assay [7], above 1000 µg/mL; in assay [2], 250 µg/mL (≈ 556 µM); in assay [9], above 1000 µg/mL; in assay [3] it was 62.5 µg/mL (≈ 139 µM); in assay [4], 62.5 µg/mL (≈ 139 µM). The MIC in assay [5] is 62.5 µg/mL (≈ 139 µM); in assay [6], 31.2 µg/mL (≈ 69.5 µM); in [16] it was above 1000 µg/mL. In addition, the MBC in [8] was 500 µg/mL (≈ 1110 µM); in assay [10], above 1000 µg/mL; in [11] it was above 1000 µg/mL; in [12], above 1000 µg/mL; in assay [13], above 1000 µg/mL; in assay [14], above 1000 µg/mL. Besides, the MBC in assay [15], in [17] and in [18] was above 1000 µg/mL throughout.

On to `CC1(C)S[C@@H]2[C@H](NC(=O)[C@H](N)c3ccccc3)C(=O)N2[C@H]1C(=O)O` [AMPICILLIN], for which the MIC in assay [1] was 62.5 µg/mL (≈ 179 µM); in assay [2] it was 6 µg/mL (≈ 17.2 µM); in [3], 6 µg/mL (≈ 17.2 µM); in assay [4], 3 µg/mL (≈ 8.59 µM); in assay [5] it was 3 µg/mL (≈ 8.59 µM); in assay [6] it was 2 µg/mL (≈ 5.72 µM).

(Values after ChEMBL document CHEMBL1649393, “Synthesis and antimicrobial activity of thiosemicarbazides, s-triazoles and their Mannich bases bearing 3-chlorophenyl moiety” (2011).)
